From patent EP0431799A2, “Use of nucleoside derivatives as cytotoxic agents” (THE WELLCOME FOUNDATION LIMITED, priority 1989, dated 1991)

System: P388 tumor cells
Parameters: species or system Male CD2-F₁ mice
Settings: mouse, in vivo, po
Source text: The tests employed for evaluating the antitumour activity of compounds of the present invention are essentially those used in the Tumor Panel of the Developmental Therapeutics Program, Divison of Cancer Treatment National Cancer Institute, A Goldin, et al., Methods in Cancer Research, Vol. XVI, p. 165, Academic Press (1979). Some modifications in dose level and schedule have been made to increase the testing efficiency.
Male CD2-F₁ mice, weighing 20 ± 3 g, were used for this test. Control and test animals were injected intraperitioneally with a suspension of ∼10⁶ viable P388 tumor cells on day 0. In each test, several dose levels which bracketed the LD₂₀ of the compound were evaluated; each dose level group contained six animals. The test compounds were prepared either in physiologic saline containing 0.05% Tween 80 or distilled water containing 5% dextrose and were administered (a) orally, (b) intravenously or (c) intraperitoneally according to the indicated schedule relative to the day of tumour implant. Doses were on a mg/kg basis according to individual animals' body weights. The day of death for each animal was recorded, the median identified for each group and the percent increase in life span (%ILS) was calculated from the ratios of median survival time for treated to control groups. The criterion for activity is % ILS greater than or equal to 20%.

Nc1ncnc2c1ncn2[C@@H]1CC[C@@H](O)[C@H]1O (racemic) [(±)-(1R*,2S*,3R*)-3-(6-amino-9H-purin-9-yl)-1,2-cyclopentanediol]
Toxic at:: 35 mg/kg
